Like-named read-outs stand apart in the source and are kept apart here.
Key:
Microglial cells = assay: Effect of sophorolipid pre-treatment on inflammatory mediators in LPS-stimulated microglia; format: cell-based, rats; conditions: E22 rat primary microglia, 24 h pre-treatment, LPS stimulation
Description: Microglial cells were obtained from primary microglial cultures from […] rats. On day 1, microglial cells were seeded in 96-well plates and allowed to adhere for 24 hours. On day 3, the microglial cells were pre-treated with sophorolipid for 24 hours (n=11). On day 4, the microglial cells were stimulated with lipopolysaccharide (LPS). On day 5, supernatants were collected and analysed for cytokines of interest.

human PBLs = assay: Effect of sophorolipids on inflammatory mediators in LPS-treated human PBLs; format: cell-based; conditions: 1, 5 and 10 μm
Description: PBLs were isolated from human blood. PBLs were treated with LPS to induce inflammatory response in the presence of different concentrations (1 μm, 5 μm, and 10 μm) of six sophorolipids: […]); BSL(6'OH,6''OH); and BSL(6'Ac,6''Ac).

Compound | IC50 (Microglial cells; read-out: PGE2 secretion, 1050) | IC50 (Microglial cells; read-out: TNF-alpha secretion, 1050) | TNF-α secretion (human PBLs) | MIP-1β secretion (human PBLs) | IL-1β secretion (human PBLs) | IL-6 secretion (human PBLs) | IL-8 secretion (human PBLs)
Sophorolipid | 29.8 µM | 21.2 µM |  |  |  |  | 
CCCCOC(=O)CCCCCCC/C=C\CCCCCC[C@H](C)O[C@@H]1O[C@H](COC(C)=O)[C@@H](O)[C@H](O)[C@H]1O[C@@H]1O[C@H](COC(C)=O)[C@@H](O)[C@H](O)[C@H]1O (relative stereo) [BSL(6′Ac,6″Ac), butyl-17-L-[(2′-0-β-D-glucopyranosyl-β-D-glucopyranosyl)-oxy]-cis-9-octadecenoate-6′-6″-diacetate] |  |  | decreased |  |  |  | 
CCOC(=O)CCCCCCC/C=C\CCCCCC[C@H](C)O[C@@H]1O[C@H](CO)[C@@H](O)[C@H](O)[C@H]1O[C@@H]1O[C@H](COC(C)=O)[C@@H](O)[C@H](O)[C@H]1O (relative stereo) [ESL(6′OH,6″Ac), ethyl-17-L-[(2′-0-β-D-glucopyranosyl-β-D-glucopyranosyl)-oxy]-cis-9-octadecenoate-6″-acetate] |  |  | decreased | decreased |  |  | 
CCOC(=O)CCCCCCC/C=C\CCCCCC[C@H](C)O[C@@H]1O[C@H](COC(C)=O)[C@@H](O)[C@H](O)[C@H]1O[C@@H]1O[C@H](COC(C)=O)[C@@H](O)[C@H](O)[C@H]1O (relative stereo) [ESL(6′Ac,6″Ac), ethyl-17-L-[(2′-0-β-D-glucopyranosyl-β-D-glucopyranosyl)-oxy]-cis-9-octadecenoate-6′-6-diacetate] |  |  | decreased | decreased | decreased | decreased | decreased

From patent publication US20230086913A1, “USE OF SOPHOROLIPIDS AS FEED ADDITIVE” (DSM IP ASSETS B.V., priority 2017, published 2023)
